Data from EP0080051A2, “Heterocyclic compounds and antibacterial and antifungal compositions containing the same as active ingredients” (MEIJI SEIKA KAISHA LTD., priority 1981, dated 1983).
Converted amounts (≈) assume the structure as drawn. Read-outs that look alike come from different tables or passages of the source.

What was measured:
[1] = tested on: Staphylococcus aureus 209P JC-1; assay: Antibacterial activity (in medicinal field), MIC; type: cell-based; details: read-out: Minimal Inhibitory Conc. (MIC)
[2] = tested on: Staphylococcus epidermidis ATCC 14990; assay: Antibacterial activity (in medicinal field), MIC; type: cell-based; details: ATCC14990, read-out: Minimal Inhibitory Conc. (MIC)
[3] = tested on: Staphylococcus faecalis ATCC 8043; assay: Antibacterial activity (in medicinal field), MIC; type: cell-based; details: ATCC8043, read-out: Minimal Inhibitory Conc. (MIC)
[4] = tested on: Bacillus anthracis No. 109; assay: microbe, parasite or virus in culture; type: cell-based; details: NO.109, read-out: Minimal Inhibitory Conc. (MIC)
[5] = tested on: Escherichia coli NIHJ JC-2; assay: Antibacterial activity (in medicinal field), MIC; type: cell-based; details: NIHJJC2, read-out: Minimal Inhibitory Conc. (MIC)
[6] = tested on: Citrobacter freundii GN-346; assay: Antibacterial activity (in medicinal field), MIC; type: cell-based; details: GN346, read-out: Minimal Inhibitory Conc. (MIC)
Salmonella typhi O-901-W = assay: Antibacterial activity (in medicinal field), MIC; type: cell-based; details: Salmonella enterica, read-out: Minimal Inhibitory Conc. (MIC)
[7] = tested on: Shigella sonnei EW 33 Type I; assay: Antibacterial activity (in medicinal field), MIC; type: cell-based; details: EW33TYPEI, read-out: Minimal Inhibitory Conc. (MIC)
[8] = tested on: Klebsiella pneumoniae PCI-602; assay: Antibacterial activity (in medicinal field), MIC; type: cell-based; details: PCI602, read-out: Minimal Inhibitory Conc. (MIC)
Proteus vulgaris OX-19 = assay: Antibacterial activity (in medicinal field), MIC; type: cell-based; details: OX19, read-out: Minimal Inhibitory Conc. (MIC)
[9] = tested on: Serratia marcescens MB-3848; assay: Antibacterial activity (in medicinal field), MIC; type: cell-based; details: MB3848, read-out: Minimal Inhibitory Conc. (MIC)
[10] = tested on: Pseudomonas cepacia M-0527; assay: Antibacterial activity (in medicinal field), MIC; type: cell-based; details: Burkholderia cepacia, M0527, read-out: Minimal Inhibitory Conc. (MIC)
[11] = mouse, p.o.
[12] = tested on: Trichophyton mentagrophytes; assay: Therapeutic experiment: treatment of trichophytosis in guinea pigs; type: in vivo; details: 1 % preparation, 0.25 ml once per day over 8 consecutive days, visual observation of diseased skin

Row | SMILES | MIC [1] [µg/mL] | MIC [2] [µg/mL] | MIC [3] [µg/mL] | MIC [4] [µg/mL] | MIC [5] [µg/mL] | MIC [6] [µg/mL] | MIC (Salmonella typhi O-901-W) [µg/mL] | MIC [7] [µg/mL] | MIC [8] [µg/mL] | MIC (Proteus vulgaris OX-19) [µg/mL] | MIC [9] [µg/mL] | MIC [10] [µg/mL] | Acute Toxicity (survival) ([11]; Dosage 200 mg/kg) | Acute Toxicity (survival) ([11]; Dosage 500 mg/kg) | Acute Toxicity (survival) ([11]; Dosage 800 mg/kg) | Therapeutic Effect: Desquamation [12] | Therapeutic Effect: Redness [12] | Therapeutic Effect: Thickening [12] | Acute Toxicity (survival) ([11]; Dosage 100 mg/kg)
1 | IC(I)=C(I)Cn1ccnc1 [1-(2',3',3'-triiodoallyl)-imidazole, 1-(2',3',3'-Triiodoallyl)imidazole] | 12.5 (≈ 25.7 µM) | 12.5 (≈ 25.7 µM) | 25 (≈ 51.5 µM) | 12.5 (≈ 25.7 µM) | 12.5 (≈ 25.7 µM) | 12.5 (≈ 25.7 µM) | 12.5 (≈ 25.7 µM) | 6.5 (≈ 13.4 µM) | 12.5 (≈ 25.7 µM) | 12.5 (≈ 25.7 µM) | 12.5 (≈ 25.7 µM) | 6.25 (≈ 12.9 µM) | – | – | – | – | – | – | –
2 | O=[N+]([O-])c1ccn(CC#CI)c1 [1-(1'-iodopro-pyn-3'-yl)-3-nitropyrrole, 1-(1'-iodopropyn-3'-yl)-3-nitropyrrole] | – | – | – | – | – | – | – | – | – | – | – | – | All animals survived | All animals survived | All animals survived | – | – | – | –
3 | Clc1ccccc1C(c1ccccc1)(c1ccccc1)n1ccnc1 [chlotri-mazol, 1-(O-chloro-d, a-diphenylbenzyl) imidazole, reference compound] | – | – | – | – | – | – | – | – | – | – | – | – | – | – | – | effective | in-effective | effective | –
4 | O=[N+]([O-])c1nccn1CC(I)=C(I)I [1-(2',3',3'-triiodoallyl)-2-nitroimidazole] | 12.5 (≈ 23.5 µM) | 12.5 (≈ 23.5 µM) | 25 (≈ 47.1 µM) | 6.25 (≈ 11.8 µM) | 25 (≈ 47.1 µM) | 3.12 (≈ 5.88 µM) | 12.5 (≈ 23.5 µM) | 3.12 (≈ 5.88 µM) | 6.25 (≈ 11.8 µM) | 6.25 (≈ 11.8 µM) | 25 (≈ 47.1 µM) | 3.12 (≈ 5.88 µM) | – | – | – | – | – | – | –
5 | O=[N+]([O-])c1c(Cl)cccc1-c1c[nH]cc1Cl [pyrrolni-trin, 3-chloro-4-(2'-nitro-3'-chlorophenyl)pyrrole, reference compound] | – | – | – | – | – | – | – | – | – | – | – | – | – | – | – | in-effective | in-effective | effective | –
6 | O=[N+]([O-])c1cn(CC#CI)c(Cl)c1Cl [1-(1'-iodopropyn-3'-yl)-2,3-dichloro-4-nitropyrrole] | – | – | – | – | – | – | – | – | – | – | – | – | All animals survived | All animals survived | All animals survived | – | – | – | –
7 | O=[N+]([O-])c1cc(Cl)n(CC(I)=C(I)I)c1 [1-(2',3',3'-triiodoallyl)-2-chloro-4-nitropyrrole] | 6.25 (≈ 11.1 µM) | 6.25 (≈ 11.1 µM) | 6.25 (≈ 11.1 µM) | 6.25 (≈ 11.1 µM) | 12.5 (≈ 22.2 µM) | 12.5 (≈ 22.2 µM) | 12.5 (≈ 22.2 µM) | 12.5 (≈ 22.2 µM) | 25 (≈ 44.3 µM) | 12.5 (≈ 22.2 µM) | 12.5 (≈ 22.2 µM) | 12.5 (≈ 22.2 µM) | – | – | – | – | – | – | –
8 | O=[N+]([O-])c1cn(CC(I)=C(I)I)c(Cl)c1Cl [1-(2',3',3'-triiodoallyl)-2,3-dichloro-4-nitropyrrole] | 31.2 (≈ 52.1 µM) | 31.2 (≈ 52.1 µM) | 31.2 (≈ 52.1 µM) | 31.2 (≈ 52.1 µM) | 12.5 (≈ 20.9 µM) | 12.5 (≈ 20.9 µM) | 12.5 (≈ 20.9 µM) | 6.25 (≈ 10.4 µM) | 25 (≈ 41.8 µM) | 6.25 (≈ 10.4 µM) | 6.25 (≈ 10.4 µM) | 6.25 (≈ 10.4 µM) | All animals survived | – | All animals survived | effective | prominently effective | effective | All animals survived
9 | O=[N+]([O-])c1ccn(CC(I)=C(I)I)c1 [1-(2',3',3'-triiodoallyl)-3-nitropyrrole] | – | – | – | – | – | – | – | – | – | – | – | – | All animals survived | – | All animals survived | effective | prominently effective | effective | All animals survived
